# According to US20150038541A1, “COMPOSITION AND METHODS FOR CELL MODULATION” (APOSIGNAL BIOSCIENCE LLC, priority 2012, published 2015):
# How the values were obtained:
# [1] = tested on: T47D cells; experiment: MTS cell viability of breast cancer T47D cells, bortezomib with or without AS-7; assay type: cell-based, human; details: 10 μM AS-7, data not shown
# Method: Breast cancer derived cell lines, T47D and 159C, were seeded in a 96 well tissue culture plate (2000 cells per well). The significance of these two lines of breast cancer derived cell lines is that the T47D cells positive for three markers used to optimize the chemotherapeutic treatment, namely HER2 receptor, estrogen receptor, and progesterone receptor. By contrast to the T47D cells, the 159C cells are negative for the three markers. The compounds, 10 μM AS-7 and a range of bortezomib (BioVision, Inc., Milpitas, Calif.) concentrations were added the following day. After 48 hours, MTS was added and absorbance was measured at 490 nm.
# [2] = tested on: breast T47D cells; experiment: Cell proliferation (growth rate, crystal violet) of breast T47D cells with AS-7 by itself; assay type: cell-based, human; details: 10 μM AS-7, vehicle doubling time 1.4 days
# Method: (§1) To examine the effect of AS-7 on the growth of several different cell lines, AS-7 at 10 μM was added to the culture medium the day after seeding the cells. The following cell lines were used to determine the effect of AS-7 on the rate of proliferation: HeLa, melanoma A2620, ovarian A2780, and breast T47D. All cell line were grown in culture medium (RPMI 1640 for the breast cancer cells and Dulbecco's modified Eagle's medium for the other cell lines) containing 10% heat inactivated fetal bovine serum without antibiotics (penicillin and streptomycin). […] The doubling times in HeLa, melanoma, ovarian and breast cancer derived cells were 0.9, 2.5, 1.0, and 1.4 days, respectively. AS-7 increased the doubling times of the HeLa, melanoma, ovarian, and breast cancer derived cells by 1.3, 1.3, 1.6, and 3.1 fold, respectively (FIGS. 11 through 14).
# [3] = tested on: HeLa cells; experiment: MTS cell viability of HeLa cells treated with anticancer drug with or without AS-7 (48 hours); assay type: cell-based, human; details: for Dose Reduction Index (DRI), combination of AS-7 with bortezomib: CalcuSyn
# Method: HeLa cells were seeded in a 96 well tissue culture plate (2000 cells per well). The compounds, 10 μM AS-7 and bortezomib (BioVision, Inc., Milpitas, Calif.) at the concentrations indicated in FIG. 1, were added the following day. AS-7 was prepared according to the Ugi reaction by combination of the four components: isocyanide (III), m-cyanobenzaldehyde (IV), 2-benzoylbenzoic acid (V), and histamine (VI) in refluxing methanol (Ref. http://www.occhem.com/synthesis/2561 2.html). The Medicinal Chemistry unit of Southern Research Institute (2000 Ninth Avenue South Birmingham, Ala. 35205) was contracted by a fee for service agreement to synthesize AS-7.
# After 48 hours, MTS (3-(4,5-dimethylthiazol-2-yl)-5-(3-carboxymethoxyphenyl)-2-(4-sulfophenyl)-2H-tetrazolium) was added and absorbance was measured at 490 nm. […] Values in FIG. 1 are relative to controls that contained only the vehicle in which the drugs were dissolved. Vehicle had no effect on cell viability. Error bars in FIG. 1 are not visible if they are smaller than the symbols. […]
# (§2) HeLa cells were seeded in a 96 well tissue culture plate (2000 cells per well). The compounds, 10 μM AS-7 and bortezomib at the concentrations indicated in FIG. 9 were added the following day. After 48 hours, MTS was added and absorbance was measured at 490 nm. […] Values are relative to controls that contained only the vehicle in which the drugs were dissolved. Vehicle had no effect on cell viability.
# [4] = tested on: HeLa cells; experiment: as above; assay type: cell-based, human; details: HeLa cells; 10 μM AS-7
# [5] = tested on: breast T47D cells; experiment: FACS cell cycle analysis after propidium iodide staining of breast T47D cells; assay type: cell-based, human; details: 10 μM AS-7
# Method: FIG. 16 illustrates that AS-7 evokes accumulation of breast T47D cells in the G0-G1 phase of the cell cycle. T47D cells were harvested one, two, or three days after treatment with or without AS-7, stained with propidium iodide and subjected to analysis by FACS (Fluorescence Activated Cell Sorter).
# A single addition of 10 μM AS-7 for 1 day to 7 or more days was sufficient to evoke accumulation in the Go-G1 phase of the cell cycle (FIGS. 15 and 16) (data not shown). […] HeLa cells were treated with nocodazole (100 ng/ml) for 12 h which evoked accumulation of rounded, loosely attached cells in mitosis. The mitotic cells were harvested and treated with or without 10 μM AS-7 in the absence of nocodazole (Released, 16 hours).
# [6] = tested on: ovarian A2780 cells; experiment: Crystal violet cell viability of ovarian A2780 cells, bortezomib with or without AS-7 (72 hours); assay type: cell-based, human; details: A2780 cells; 10 μM AS-7
# Method: Ovarian tumor-derived cell lines, IGROV and A2780, were seeded in a 96 well tissue culture plate (2000 cells per well). The compounds, 10 μM AS-7 and bortezomib (BioVision, Inc., Milpitas, Calif.) at the concentrations indicated in the figures, were added the following day. AS-7 was prepared as described in Example I above. […] Values are relative to cells that with the vehicle in which the drugs were dissolved. Vehicle had no effect on cell viability. Error bars in FIG. 6 and FIG. 7 are not shown if they are smaller than the symbols.
# [7] = tested on: Melanoma A2620 cells; experiment: Cell proliferation (growth rate, crystal violet) of melanoma A2620 cells with AS-7 by itself; assay type: cell-based, human; details: 10 μM AS-7, vehicle doubling time 2.5 days
# Method: as §1
# [8] = tested on: Melanoma A2620 cells; experiment: Crystal violet cell viability of melanoma A2620 cells, bortezomib with or without AS-7 (72 hours); assay type: cell-based, human; details: 10 μM AS-7
# Method: as §2, with “Melanoma A2620 cells” for “HeLa cells”, “FIG. 8” for “FIG. 9”, “day.” for “day. After 48 hours, MTS was added and absorbance was measured at 490 nm.”
# [9] = Solubility in aqueous solutions; assay type: physicochemical
# Text: The ubiquitin-proteasome sensitizer compound and/or the ubiquitin-proteasome inhibitor compounds utilized in the method provided herein may also be modified by appending appropriate functionalities to enhance selective biological properties. Such modifications are known in the art and include those which increase biological penetration into a given biological system (e.g., blood, lymphatic system, central nervous system), increase oral availability, increase solubility to allow administration by injection, alter metabolism and alter rate of excretion. […] In some embodiments, AS-7 or an active derivative thereof can be dissolved at 50 mM AS-7 in dimethylsulfoxide containing 5% Cremaphor® EL detergent (Sigma Aldrich) and diluted approximately one thousand fold in a physiologic salt solution such as saline containing albumin in the range of the albumin concentration of blood. Alternatively, nanoparticles containing AS-7 or an active derivative thereof are administered to the subject. Nanoparticles can be made by mixing human albumin at a 3-4% solution in a salt solution of the desired pH and ionic strength, subjecting the solution to elevated pressure and releasing the solution via a small jet. Nanoparticles of optimal size can be purified by differential centrifugation. […]
structure (smiles),measurement,setting,value
N#Cc1cccc(C(C(=O)NCC(c2ccccc2)c2ccccc2)N(CCc2c[nH]cn2)C(=O)c2ccccc2C(=O)c2ccccc2)c1 (centres unmarked) [AS-7],potentiation of the cytotoxic action of bortezomib,[1],markedly potentiated
same,increase of doubling time,[2],3.1 fold
same,shift of NLVS concentration dependence (HeLa cell viability),"[3]; 10 μM AS-7, 48 hours, MTS",markedly shifted the NLVS concentration dependence to the left
same,HeLa cell viability,[3]; AS-7 alone,no loss of cell viability
same,"Dose Reduction Index (DRI), combination of AS-7 with bortezomib","[3]; HeLa cells, 12 nM bortezomib",7.3
same,"Dose Reduction Index (DRI), combination of AS-7 with bortezomib","[3]; HeLa cells, 16 nM bortezomib",18
same,"Dose Reduction Index (DRI), combination of AS-7 with bortezomib","[3]; HeLa cells, 20 nM bortezomib",72
same,increase in potency of the cytotoxic action of bortezomib by AS-7,"[3]; HeLa cells, 10 μM AS-7",approximately 3.5 fold
same,increase in potency of the cytotoxic action of carfilzomib by AS-7,[4],approximately 3.5 fold
same,"cell cycle distribution (FACS, propidium iodide)",[5],evoked the accumulation
same,increase in potency of the cytotoxic action of bortezomib by AS-7,[6],approximately 3.1 fold
same,increase of doubling time,[7],1.3 fold
same,increase in potency of the cytotoxic action of bortezomib by AS-7,[8],approximately three
same,solubility in aqueous solutions,[9],limited solubility in aqueous solutions
